Columns and labels:
Trichomonas vaginalis = assay: in vivo activity against Trichomonas vaginalis (ED50, per os, mice) and therapeutic index; details: for ED50: po, Trichomonas vaginalis
Description: (§1) The inventive compounds have very interesting antimicrobial and amoebicidal utilities which are ascertained through the usual and well known in vitro tests. Moreover, they display an outstanding in vivo activity against Trichomonas vaginalis, a protozoan which is responsible for itching and other painful and troublesome diseases of the vaginal tract. Their in vivo activity, expressed as an ED50 value, is better than that of other known 2-nitroimidazole derivatives, and their activity is, moreover, coupled with a very low toxicity, expressed as an LD50 value. These properties indicate that the compounds of the invention are very promising anti-Trichomonas agents both from the effectiveness and the safety standpoint, owing to their […] and their high therapeutic indexes (T.I.). Since a therapeutic index is expressed by the following ratio: [formula] it is clear that the higher the T.I., the safer a drug is.
In the following Table, results representative of the inventive compounds are reported.

[1] = toxicity (LD50, per os, mice); assay type: in vivo
Description: as §1

## Cn1c(C(C)(C)OC(=O)Oc2ccccc2)cnc1[N+](=O)[O-] [Example 1, α, α,1-Trimethyl-2-nitroimidazole-5-methanol phenylcarbonate]
Trichomonas vaginalis; per os, mice
  T.I. (LD50/ED50): 1969
  ED50: 1.65 mg/kg
Trichomonas vaginalis; vs metronidazole, LD50/ED50
  T.I. compared with metronidazole, in words: better T.I. than metronidazole
Trichomonas vaginalis; vs metronidazole, per os, mice
  ED50 compared with metronidazole, in words: better ED50
[1]
  LD50: 3250 mg/kg

## Cc1ncc([N+](=O)[O-])n1CCO [metronidazole, 1-(2-hydroxyethyl)-2-methyl-5-nitroimidazole, reference compound]
Trichomonas vaginalis; per os, mice
  T.I. (LD50/ED50): 658
  ED50: 5.77 mg/kg
[1]
  LD50: 3800 mg/kg

— patent US4113953A, “2-Nitroimidazole derivatives” (Gruppo Lepetit S.p.A., priority 1976, dated 1978)
